Assay results as given in PubChem BioAssay AID1259407 (Chemical Carcinogenesis Research Information System (CCRIS), 2018).
Active and inactive are the calls of the source. No rule for the calls is given here.

Tested on: CCRIS mutagenicity, Ames/micronucleus/aberration tests
Assay: CCRIS mutagenicity studies
[1] = Test System: AMES SALMONELLA TYPHIMURIUM, Strain/Indicator: TA98, Metabolic Activation: RAT, LIVER, S-9, AROCLOR 1254, Method: STANDARD PLATE
[2] = Test System: AMES SALMONELLA TYPHIMURIUM, Strain/Indicator: TA98, Metabolic Activation: NONE, Method: PREINCUBATION
[3] = Test System: AMES SALMONELLA TYPHIMURIUM, Strain/Indicator: TA100, Metabolic Activation: NONE, Method: PREINCUBATION
[4] = Test System: AMES SALMONELLA TYPHIMURIUM, Strain/Indicator: TA98, Metabolic Activation: NONE, Method: STANDARD PLATE
[5] = Test System: AMES SALMONELLA TYPHIMURIUM, Strain/Indicator: TA100, Metabolic Activation: NONE, Method: STANDARD PLATE

In the case of `COc1cc(N=Nc2ccccc2)ccc1N`, the mutagenic call (Test System: AMES SALMONELLA TYPHIMURIUM, Strain/Indicator: TA98, Metabolic Activation: RAT LIVER, CYTOSOL, AROCLOR 1254, Method: PREINCUBATION) is reported as “inactive; negative”, the mutagenic call (Test System: AMES SALMONELLA TYPHIMURIUM, Strain/Indicator: TA98, Metabolic Activation: RAT LIVER, MICROSOMES, AROCLOR 1254, Method: PREINCUBATION) is reported as “active; positive” and the mutagenic call (Test System: AMES SALMONELLA TYPHIMURIUM, Strain/Indicator: TA98, Metabolic Activation: RAT, LIVER, MICROSOMES, 3-METHOXY-4-AMINOAZOBENZENE, Method: PREINCUBATION) is reported as “inactive; negative”. For the same molecule, the mutagenic call (Test System: AMES SALMONELLA TYPHIMURIUM, Strain/Indicator: TA98, Metabolic Activation: RAT, LIVER, MICROSOMES, AROCLOR 1254, Method: PREINCUBATION) was “active; positive”, the mutagenic call (Test System: AMES SALMONELLA TYPHIMURIUM, Strain/Indicator: TA98, Metabolic Activation: RAT, LIVER, MICROSOMES, Method: PREINCUBATION) was “inactive; negative” and the mutagenic call [1] was “active; positive”. For the same molecule, the mutagenic call (Test System: AMES SALMONELLA TYPHIMURIUM, Strain/Indicator: TA98, Metabolic Activation: RAT, LIVER, S-9, KC500 OR PHENOBARBITAL, Method: LIQUID SUSPENSION) was “active; positive”, the mutagenic call (Test System: AMES SALMONELLA TYPHIMURIUM, Strain/Indicator: TA100, Metabolic Activation: RAT, LIVER, S-9, KC500 OR PHENOBARBITAL, Method: LIQUID SUSPENSION) was “active; positive” and the mutagenic call (Test System: AMES SALMONELLA TYPHIMURIUM, Strain/Indicator: TA1538, Metabolic Activation: RAT, LIVER, S-9, AROCLOR 1254, Method: STANDARD PLATE) was “active; positive”.
`Cc1cc2nc3cc(C)c(N)cc3[n+](-c3ccccc3)c2cc1N` was tested, and the mutagenic call (Test System: AMES SALMONELLA TYPHIMURIUM, Strain/Indicator: TA98, Method: PREINCUBATION) was “active; positive” and the mutagenic call (Test System: AMES SALMONELLA TYPHIMURIUM, Strain/Indicator: TA100, Method: PREINCUBATION) was “active; positive”.
With `CC[C@H]1OC(=O)[C@H](C)[C@@H](O[C@H]2C[C@@](C)(OC)[C@@H](O)[C@H](C)O2)[C@H](C)[C@@H](O[C@@H]2O[C@H](C)C[C@H](N(C)C)[C@H]2O)[C@](C)(O)C[C@@H](C)/C(=N\OCOCCOC)[C@H](C)[C@@H](O)[C@]1(C)O` the mutagenic call [2] was “inactive; negative”, the mutagenic call (Test System: AMES SALMONELLA TYPHIMURIUM, Strain/Indicator: TA98, Metabolic Activation: RAT, LIVER, S-9, PHENOBARBITAL, Method: PREINCUBATION) was “inactive; negative” and the mutagenic call [3] was “inactive; negative”. The mutagenic call (Test System: AMES SALMONELLA TYPHIMURIUM, Strain/Indicator: TA100, Metabolic Activation: RAT, LIVER, S-9, PHENOBARBITAL, Method: PREINCUBATION) was “inactive; negative”, the mutagenic call (Test System: AMES SALMONELLA TYPHIMURIUM, Strain/Indicator: TA1535, Metabolic Activation: NONE, Method: PREINCUBATION) was “inactive; negative” and the mutagenic call (Test System: AMES SALMONELLA TYPHIMURIUM, Strain/Indicator: TA1535, Metabolic Activation: RAT, LIVER, S-9, PHENOBARBITAL, Method: PREINCUBATION) was “inactive; negative”. For the same molecule, the mutagenic call (Test System: AMES SALMONELLA TYPHIMURIUM, Strain/Indicator: TA1537, Metabolic Activation: NONE, Method: PREINCUBATION) was “inactive; negative”, the mutagenic call (Test System: AMES SALMONELLA TYPHIMURIUM, Strain/Indicator: TA1537, Metabolic Activation: RAT, LIVER, S-9, PHENOBARBITAL, Method: PREINCUBATION) was “inactive; negative” and the mutagenic call (Test System: E. COLI, Strain/Indicator: WP2 UVRA, Metabolic Activation: NONE, Method: PREINCUBATION) was “inactive; negative”. The mutagenic call (Test System: E. COLI, Strain/Indicator: WP2 UVRA, Metabolic Activation: RAT, LIVER, S-9, PHENOBARBITAL, Method: PREINCUBATION) was “inactive; negative”.
In the case of `Cl/C=C(/Cl)c1c(Cl)c(Cl)c(Cl)c(Cl)c1Cl`, the mutagenic call [4] is reported as “inactive; negative”, the mutagenic call [1] is reported as “inactive; negative” and the mutagenic call [5] is reported as “inactive; negative”. The mutagenic call (Test System: AMES SALMONELLA TYPHIMURIUM, Strain/Indicator: TA100, Metabolic Activation: RAT, LIVER, S-9, AROCLOR 1254, Method: STANDARD PLATE) was “inactive; negative”.
In the case of `Clc1nncc2ccccc12`, the mutagenic call [2] is reported as “inactive; negative”, the mutagenic call (Test System: AMES SALMONELLA TYPHIMURIUM, Strain/Indicator: TA98, Metabolic Activation: RAT, LIVER, S-9, PCB, Method: PREINCUBATION) is reported as “inactive; negative” and the mutagenic call [3] is reported as “inactive; negative”. The mutagenic call (Test System: AMES SALMONELLA TYPHIMURIUM, Strain/Indicator: TA100, Metabolic Activation: RAT, LIVER, S-9, PCB, Method: PREINCUBATION) was “inactive; negative”.
In the case of `Nc1ccc(-c2ccc(N)cc2Cl)c(Cl)c1`, the mutagenic call (Test System: AMES SALMONELLA TYPHIMURIUM, Strain/Indicator: TA98, Metabolic Activation: HAMSTER, LIVER, S-9, Method: PREINCUBATION (PRIVAL METHOD)) is reported as “active; positive”, the mutagenic call (Test System: AMES SALMONELLA TYPHIMURIUM, Strain/Indicator: TA98, Metabolic Activation: NONE, Method: PREINCUBATION (PRIVAL METHOD)) is reported as “active; positive” and the mutagenic call (Test System: UDS HUMAN CELLS, Strain/Indicator: THY INCORP (NON-S-PHASE), Metabolic Activation: RAT, LIVER, S-9, PHENOBARBITAL, Method: LIQUID SCINTILLATION COUNTING) is reported as “active; positive”.
In the case of `c1cnc2c(c1)[C@@H]1O[C@@H]1C1OC21` (stereo not given in full), the mutagenic call [5] is reported as “inactive; negative” and the mutagenic call (Test System: AMES SALMONELLA TYPHIMURIUM, Strain/Indicator: TA100, Metabolic Activation: RAT, LIVER, S-9, AROCLOR 1254 (10% OR 20%), Method: STANDARD PLATE) is reported as “inactive; negative”.
`Cn1c(N=[N+]=[N-])nc2ccc3ncccc3c21` was tested, and the mutagenic call (Test System: AMES SALMONELLA TYPHIMURIUM, Strain/Indicator: TA98(1,8-DNP6), Metabolic Activation: NONE, Method: STANDARD PLATE) was “active; positive” and the mutagenic call [4] was “active; positive”.
For `Cc1ccc(N=O)cc1[N+](=O)[O-]`, the mutagenic call (Test System: AMES SALMONELLA TYPHIMURIUM, Strain/Indicator: TA98, Metabolic Activation: NONE, Method: SUSPENSION/PLATE) was “inactive; negative”, the mutagenic call (Test System: AMES SALMONELLA TYPHIMURIUM, Strain/Indicator: TA98, Metabolic Activation: RAT, LIVER, S-9, PHENOBARBITAL AND 5,6-BENZOFLAVONE, Method: SUSPENSION/PLATE) was “inactive; negative” and the mutagenic call (Test System: AMES SALMONELLA TYPHIMURIUM, Strain/Indicator: TA100, Metabolic Activation: NONE, Method: SUSPENSION/PLATE) was “inactive; negative”. For the same molecule, the mutagenic call (Test System: AMES SALMONELLA TYPHIMURIUM, Strain/Indicator: TA100, Metabolic Activation: RAT, LIVER, S-9, PHENOBARBITAL AND 5,6-BENZOFLAVONE, Method: SUSPENSION/PLATE) was “inactive; negative”.
